From patent publication US4562204A, “Trans-Δ^2 -prostaglandin D derivatives, process for their preparation and compositions containing them” (Ono Pharmaceutical Co., Ltd., priority 1982, dated 1985)

Legend:
[1] = tested on: human myelogenous leukemic cells (HL-60); test: Inhibition of the proliferation of human myelogenous leukemic cells (HL-60), Trypan Blue staining; format: cell-based; details: HL-60, 96 h, 37° C., 4 days, relative to control (0.1% ethanol), read-out: Percent Inhibition of proliferation, HL-60 cells; for inhibition at 1 µg/mL: 1 μg/ml; for inhibition at 5 µg/mL: 5 μg/ml
Method: Test on the Inhibition of the Proliferation of Human Myelogenous Leukemic Cells (HL-60) Experimental method
The test on the inhibition of the proliferation of human myelogenous leukemic cells was conducted by a well known method. The human myelogenous leukemic cells (HL-60) were added to an RPMI culture solution containing 10% bovine fetal serum, the number of cells in the culture solution was adjusted to 1×10^5 cells/ml, a solution in ethanol of the compound under test was added to give a concentration of 5 μg/ml or 1 μg/ml, and the mixture was subjected to stationary culture at 37° C. for 4 days. As a control, a culture solution containing 0.1% of ethanol was similarly cultured. The culture solutions were stained by the Trypan Blue staining method and the surviving cell number was measured to determine the degree of inhibition relative to the control.

[2] = tested on: cells originated from human mouth tumour (KB-cells); test: Inhibition of the proliferation of cells originated from human mouth tumour (KB-cells), Trypan Blue staining; format: cell-based; details: 96 h, 37° C., 4 days, relative to control (0.1% ethanol), read-out: Percent Inhibition of proliferation, KB-cells; for inhibition at 1 µg/mL: 1 μg/ml; for inhibition at 5 µg/mL: 5 μg/ml
Method: Test on the Inhibition of the Proliferation of Cells Originated from Human Mouth Tumour (KB-cells) Experimental method
The test on the inhibition of the proliferation of cells originated from human mouth tumour was conducted by a well known method. The cells originated from human mouth tumour (KB-cells) were added to an Eagle's MEM culture solution containing 10% bovine fetal serum, the number of cells in the culture solution was adjusted to 1×10^5 cells/ml, a solution in ethanol of the compound under test was added to give a concentration of 5 μg/ml or 1 μg/ml, and the mixture was subjected to stationary culture at 37° C. for 4 days. As a control, a culture solution containing 0.1% of ethanol was similarly cultured. The culture solutions were stained by the Trypan Blue staining method and the surviving cell number was measured to determine the degree of inhibition relative to the control.

| SMILES | inhibition at 1 µg/mL [1] | inhibition at 5 µg/mL [1] | inhibition at 1 µg/mL [2] | inhibition at 5 µg/mL [2] |
| --- | --- | --- | --- | --- |
| CCCCCC=CC=C1C(=O)C=C[C@@H]1C/C=C\C/C=C/C(=O)O [(2E,5Z,9Z,14EZ)-11-oxoprosta-2,5,9,12,14-pentaenoic acid] | 4.8% | 98.3% | 0% | 100% |
| CCCCC[C@H](O)/C=C/[C@H]1C(=O)C[C@H](O)[C@@H]1C/C=C\C/C=C/C(=O)O [Trans-Δ^2 -PGD2, (2E,5Z,13E)-(9α,15S)-9,15-dihydroxy-11-oxoprosta-2,5,13-trienoic acid] | 0% | 19.4% | 2.1% | 17.9% |
| CCCCC[C@H](O)/C=C/[C@H]1C(=O)C=C[C@@H]1C/C=C\C/C=C/C(=O)O [Trans-Δ^2-9-deoxy-Δ^9 -PGD2, (2E,5Z,9Z,13E)-(15S)-11-oxo-15-hydroxyprosta-2,5,9,13-tetraenoic acid] | 1.4% | 99% | 9.7% | 98.5% |
